According to BigSolDB 2.1:

Work on O=c1[nH]cc(F)c(=O)[nH]1 yielded a solubility (mole fraction) (in DMF, 283.15 K) of 0.00344, a solubility (mole fraction) (in DMF, 288.15 K) of 0.00452 and a solubility (mole fraction) (in DMF, 293.15 K) of 0.00556. The solubility (mole fraction) (in DMF, 298.15 K) was 0.00658, the solubility (mole fraction) (in DMF, 303.15 K) was 0.00779 and the solubility (mole fraction) (in DMF, 308.15 K) was 0.00923. The solubility (mole fraction) (in DMF, 313.15 K) was 0.0109, the solubility (mole fraction) (in DMF, 318.15 K) was 0.0127 and the solubility (mole fraction) (in DMF, 323.15 K) was 0.0143. The solubility (mole fraction) (in acetic acid, 283.15 K) was 0.000413, the solubility (mole fraction) (in acetic acid, 288.15 K) was 0.000496 and the solubility (mole fraction) (in acetic acid, 293.15 K) was 0.000592. It also gave a solubility (mole fraction) (in acetic acid, 298.15 K) of 0.000722, a solubility (mole fraction) (in acetic acid, 303.15 K) of 0.000891 and a solubility (mole fraction) (in acetic acid, 308.15 K) of 0.0011. For the same molecule, the solubility (mole fraction) (in acetic acid, 313.15 K) was 0.00134, the solubility (mole fraction) (in acetic acid, 318.15 K) was 0.0017 and the solubility (mole fraction) (in acetic acid, 323.15 K) was 0.0022. The solubility (mole fraction) (in ethanol, 283.15 K) was 0.00202, the solubility (mole fraction) (in ethanol, 288.15 K) was 0.00224 and the solubility (mole fraction) (in ethanol, 293.15 K) was 0.00245. It also gave a solubility (mole fraction) (in ethanol, 298.15 K) of 0.00268, a solubility (mole fraction) (in ethanol, 303.15 K) of 0.00301 and a solubility (mole fraction) (in ethanol, 308.15 K) of 0.00331. The solubility (mole fraction) (in ethanol, 313.15 K) was 0.00369, the solubility (mole fraction) (in ethanol, 318.15 K) was 0.00402 and the solubility (mole fraction) (in ethanol, 323.15 K) was 0.00451. The solubility (mole fraction) (in formic acid, 283.15 K) was 0.000481, the solubility (mole fraction) (in formic acid, 288.15 K) was 0.000568 and the solubility (mole fraction) (in formic acid, 293.15 K) was 0.000675. It also gave a solubility (mole fraction) (in formic acid, 298.15 K) of 0.000827, a solubility (mole fraction) (in formic acid, 303.15 K) of 0.000988 and a solubility (mole fraction) (in formic acid, 308.15 K) of 0.00121. For the same molecule, the solubility (mole fraction) (in formic acid, 313.15 K) was 0.00147, the solubility (mole fraction) (in formic acid, 318.15 K) was 0.00186 and the solubility (mole fraction) (in formic acid, 323.15 K) was 0.00238. It also gave a solubility (mole fraction) (in isobutanol, 283.15 K) of 0.000629, a solubility (mole fraction) (in isobutanol, 288.15 K) of 0.000731 and a solubility (mole fraction) (in isobutanol, 293.15 K) of 0.000854. The solubility (mole fraction) (in isobutanol, 298.15 K) was 0.00101, the solubility (mole fraction) (in isobutanol, 303.15 K) was 0.0012 and the solubility (mole fraction) (in isobutanol, 308.15 K) was 0.00143. It also gave a solubility (mole fraction) (in isobutanol, 313.15 K) of 0.00173, a solubility (mole fraction) (in isobutanol, 318.15 K) of 0.00213 and a solubility (mole fraction) (in isobutanol, 323.15 K) of 0.00261. The solubility (mole fraction) (in isopentanol, 283.15 K) was 0.000714, the solubility (mole fraction) (in isopentanol, 288.15 K) was 0.000823 and the solubility (mole fraction) (in isopentanol, 293.15 K) was 0.00095. For the same molecule, the solubility (mole fraction) (in isopentanol, 298.15 K) was 0.00112, the solubility (mole fraction) (in isopentanol, 303.15 K) was 0.00132 and the solubility (mole fraction) (in isopentanol, 308.15 K) was 0.00156. For the same molecule, the solubility (mole fraction) (in isopentanol, 313.15 K) was 0.00188, the solubility (mole fraction) (in isopentanol, 318.15 K) was 0.00232 and the solubility (mole fraction) (in isopentanol, 323.15 K) was 0.00276. For the same molecule, the solubility (mole fraction) (in isopropanol, 283.15 K) was 0.000549, the solubility (mole fraction) (in isopropanol, 288.15 K) was 0.000647 and the solubility (mole fraction) (in isopropanol, 293.15 K) was 0.000762. The solubility (mole fraction) (in isopropanol, 298.15 K) was 0.000908, the solubility (mole fraction) (in isopropanol, 303.15 K) was 0.00107 and the solubility (mole fraction) (in isopropanol, 308.15 K) was 0.00132. For the same molecule, the solubility (mole fraction) (in isopropanol, 313.15 K) was 0.00161, the solubility (mole fraction) (in isopropanol, 318.15 K) was 0.00195 and the solubility (mole fraction) (in isopropanol, 323.15 K) was 0.00247. It also gave a solubility (mole fraction) (in methanol, 283.15 K) of 0.00313, a solubility (mole fraction) (in methanol, 288.15 K) of 0.00357 and a solubility (mole fraction) (in methanol, 293.15 K) of 0.0041. For the same molecule, the solubility (mole fraction) (in methanol, 298.15 K) was 0.00464, the solubility (mole fraction) (in methanol, 303.15 K) was 0.00521 and the solubility (mole fraction) (in methanol, 308.15 K) was 0.0058. It also gave a solubility (mole fraction) (in methanol, 313.15 K) of 0.00643, a solubility (mole fraction) (in methanol, 318.15 K) of 0.00713 and a solubility (mole fraction) (in methanol, 323.15 K) of 0.00787. For the same molecule, the solubility (mole fraction) (in n-butanol, 283.15 K) was 0.00101, the solubility (mole fraction) (in n-butanol, 288.15 K) was 0.00113 and the solubility (mole fraction) (in n-butanol, 293.15 K) was 0.00128. It also gave a solubility (mole fraction) (in n-butanol, 298.15 K) of 0.00147, a solubility (mole fraction) (in n-butanol, 303.15 K) of 0.00168 and a solubility (mole fraction) (in n-butanol, 308.15 K) of 0.00197. The solubility (mole fraction) (in n-butanol, 313.15 K) was 0.00232, the solubility (mole fraction) (in n-butanol, 318.15 K) was 0.00269 and the solubility (mole fraction) (in n-butanol, 323.15 K) was 0.0031. It also gave a solubility (mole fraction) (in n-butyric acid, 283.15 K) of 0.000247, a solubility (mole fraction) (in n-butyric acid, 288.15 K) of 0.000296 and a solubility (mole fraction) (in n-butyric acid, 293.15 K) of 0.000364. The solubility (mole fraction) (in n-butyric acid, 298.15 K) was 0.000444, the solubility (mole fraction) (in n-butyric acid, 303.15 K) was 0.000557 and the solubility (mole fraction) (in n-butyric acid, 308.15 K) was 0.000696. For the same molecule, the solubility (mole fraction) (in n-butyric acid, 313.15 K) was 0.000877, the solubility (mole fraction) (in n-butyric acid, 318.15 K) was 0.00111 and the solubility (mole fraction) (in n-butyric acid, 323.15 K) was 0.00143. The solubility (mole fraction) (in n-pentanol, 283.15 K) was 0.000791, the solubility (mole fraction) (in n-pentanol, 288.15 K) was 0.000902 and the solubility (mole fraction) (in n-pentanol, 293.15 K) was 0.00104. The solubility (mole fraction) (in n-pentanol, 298.15 K) was 0.0012, the solubility (mole fraction) (in n-pentanol, 303.15 K) was 0.0014 and the solubility (mole fraction) (in n-pentanol, 308.15 K) was 0.00166. For the same molecule, the solubility (mole fraction) (in n-pentanol, 313.15 K) was 0.00199, the solubility (mole fraction) (in n-pentanol, 318.15 K) was 0.00226 and the solubility (mole fraction) (in n-pentanol, 323.15 K) was 0.00286. For the same molecule, the solubility (mole fraction) (in n-propanol, 283.15 K) was 0.00184, the solubility (mole fraction) (in n-propanol, 288.15 K) was 0.00213 and the solubility (mole fraction) (in n-propanol, 293.15 K) was 0.00242. The solubility (mole fraction) (in n-propanol, 298.15 K) was 0.00272, the solubility (mole fraction) (in n-propanol, 303.15 K) was 0.00303 and the solubility (mole fraction) (in n-propanol, 308.15 K) was 0.00338. For the same molecule, the solubility (mole fraction) (in n-propanol, 313.15 K) was 0.00376, the solubility (mole fraction) (in n-propanol, 318.15 K) was 0.00415 and the solubility (mole fraction) (in n-propanol, 323.15 K) was 0.00465. For the same molecule, the solubility (mole fraction) (in propionic acid, 283.15 K) was 0.000374, the solubility (mole fraction) (in propionic acid, 288.15 K) was 0.000454 and the solubility (mole fraction) (in propionic acid, 293.15 K) was 0.000536. The solubility (mole fraction) (in propionic acid, 298.15 K) was 0.000668, the solubility (mole fraction) (in propionic acid, 303.15 K) was 0.000816 and the solubility (mole fraction) (in propionic acid, 308.15 K) was 0.00101. The solubility (mole fraction) (in propionic acid, 313.15 K) was 0.0013, the solubility (mole fraction) (in propionic acid, 318.15 K) was 0.00166 and the solubility (mole fraction) (in propionic acid, 323.15 K) was 0.00214. For the same molecule, the solubility (mole fraction) (in water, 283.15 K) was 0.0011, the solubility (mole fraction) (in water, 288.15 K) was 0.00131 and the solubility (mole fraction) (in water, 293.15 K) was 0.00153. For the same molecule, the solubility (mole fraction) (in water, 298.15 K) was 0.00175, the solubility (mole fraction) (in water, 303.15 K) was 0.00198 and the solubility (mole fraction) (in water, 308.15 K) was 0.00229. For the same molecule, the solubility (mole fraction) (in water, 313.15 K) was 0.00256, the solubility (mole fraction) (in water, 318.15 K) was 0.00298 and the solubility (mole fraction) (in water, 323.15 K) was 0.00345.
